These results are taken from US11178870B2 (priority 2017, dated 2021).

In experiment [1] the test system is Puccinia recondita. Description: Test Example E: Brown rust on wheat. It counts as in vivo.
For experiment [2], the system named is Phytophthora infestans. Put plainly: whole plant or invertebrate. It counts as in vivo. Particulars: in Solanum lycopersicum.
Experiment [3] has as its system Alternaia brassicicola. Put plainly: Test Example C: Alternaria sooty spot on cabbage. It counts as in vivo. Particulars: Brassica oleracea.
Experiment [4] deals with Plasmopara viticola. Description: Test Example G: Downy mildew on vine. In kind it is in vivo.
Experiment [5] has as its system Blumeria graminis f. sp. hordei. Put plainly: Test Example D: Powdery mildew on barley. It counts as in vivo.
Experiment [6] concerns Colletotrichum orbiculare. Description: whole plant or invertebrate. Conditions: in Cucumis sativus, read-out: control value, Test H (anthracnose on cucumber).
Procedure: Seeds of a test plant (cucumber variety: Sagami Hanjiro) were planted and cultivated until the first leaf appeared. In the test, the compounds of the present invention were dissolved into a dimethyl sulfoxide-methanol mixture solution (volume ratio: 9/1), and the resultant solutions were diluted with well water to a concentration of 250 ppm. The thus-obtained dilutions were sprayed to the test plant (2.5 ml/pot). After the dilutions dried, a conidial suspension (2-4×10^5 conidia/ml) of Colletotrichum orbiculare was inoculated to the plant by spraying. After the inoculation, the plant was kept in a mist chamber at room temperature of 20 to 23° C. for about 24 hours to promote the onset of disease. The disease development was investigated 6 to 10 days after the inoculation, and the effectiveness of the dilutions was evaluated.
Disease development in Test Example described above was evaluated in increments of 0.05 by setting 0 as no incidence of disease and 3 as disease development in a plant of untreated group. In addition, control values were calculated using the following equation based on disease development.
Control value=100 {1−(n/3)}
n=Disease development of each treated groups
Experiment [7] deals with Magnaporthe grisea. Description: whole plant or invertebrate. In kind it is in vivo. Particulars: Pyricularia oryzae, in Oryza sativa.
Experiment [8] has as its system Botrytis cinerea. Description: Test Example B: Gray mold on tomato. It counts as in vivo.
Setting [9] is: Table 7, Test E, read-out: control value, Test E (brown rust on wheat).
[10] abbreviates: read-out: control value, Test F (late blight on tomato).
Setting [11] is: Table 7, Test C, read-out: control value, Test C (Alternaria sooty spot on cabbage).
[12] abbreviates: 250 ppm sprayed (2.5 ml/pot) before inoculation, assessed 7 to 10 days after inoculation, read-out: control value, Test G (downy mildew on vine).
The mark [13] stands for this setting: Table 7, Test D, read-out: control value, Test D (powdery mildew on barley).
Where [14] appears, read: read-out: control value, Test A (blast on rice).
Setting [15] is: Table 7, Test B, read-out: control value, Test B (gray mold on tomato).
The mark [16] stands for this setting: Brown rust on wheat, read-out: Test E control value.
Where [17] appears, read: Alternaria sooty spot on cabbage, read-out: Test C control value.
The mark [18] stands for this setting: Downy mildew on vine, 250 ppm sprayed, 2.5 ml/pot, 7 to 10 days after inoculation, read-out: Test G control value.
The mark [19] stands for this setting: Powdery mildew on barley, read-out: Test D control value.
Setting [20] is: Gray mold on tomato, read-out: Test B control value.

Read-outs that look alike come from different tables or passages of the source.

In the case of `C=CCOc1cc(F)c(-c2c(-n3cc(Cl)cn3)cc(Cl)c(=O)n2CC)c(F)c1` [compound 202, 6-(4-(allyloxy)-2,6-difluorophenyl)-3-chloro-5-(4-chloro-1H-pyrazol-1-yl)-1-ethylpyridin-2(1H)-one], the pest or weed control at 250 µg/mL is over 50% in experiment [1] (setting [9]); under 50% in experiment [2] (setting [10]); over 50% in experiment [3] (setting [11]); over 50% in experiment [5] (setting [13]); over 50% in experiment [7] (setting [14]); over 50% in experiment [8] (setting [15]). Moreover, the pest or weed control at 250 ppm in experiment [4] (setting [12]) was under 50%; in experiment [6], over 50%.
`CCn1c(-c2ccc(F)cc2F)c(-n2ncc(C)c2Cl)cc(Br)c1=O` [compound 228, 3-bromo-5-(5-chloro-4-methyl-1H-pyrazol-1-yl)-6-(2,4-difluoro-phenyl)-1-ethylpyridin-2(1H)-one]: the pest or weed control at 250 µg/mL in experiment [1] (setting [9]) was over 50%; in experiment [2] (setting [10]), under 50%; in experiment [3] (setting [11]), over 50%; in experiment [5] (setting [13]), over 50%; in experiment [7] (setting [14]), over 50%; in experiment [8] (setting [15]) it was over 50%. In addition, the pest or weed control at 250 ppm in experiment [4] (setting [12]) is under 50%; in experiment [6], over 50%.
Turning to `CCn1c(-c2c(F)cc(F)cc2F)c(-n2cc(Cl)cn2)cc(C=O)c1=O` [compound 265, 5-(4-chloro-1H-pyrazol-1-yl)-1-ethyl-2-oxo-6-(2,4,6-trifluorophenyl)-1,2-dihydropyridin-3-carboaldehyde], the pest or weed control at 250 µg/mL in experiment [1] (setting [9]) was over 50%; in experiment [2] (setting [10]), under 50%; in experiment [3] (setting [11]) it was over 50%; in experiment [5] (setting [13]) it was over 50%; in experiment [7] (setting [14]), under 50%; in experiment [8] (setting [15]), under 50%. Further, the pest or weed control at 250 ppm in experiment [4] (setting [12]) and in experiment [6] was under 50% in each case.
Consider `CCn1c(-c2c(F)cc(OC(C)=O)cc2F)c(-n2cc(Cl)cn2)cc(Cl)c1=O` [compound 205], for which the pest or weed control at 250 µg/mL in experiment [1] (in Triticum aestivum, Table 7, Test E, read-out: control value, Test E (brown rust on wheat)) was over 50%; in experiment [2] (setting [10]) it was under 50%; in experiment [3] (setting [11]) it was over 50%; in experiment [5] (in Hordeum vulgare, Table 7, Test D, read-out: control value, Test D (powdery mildew on barley)) it was under 50%; in experiment [7] (setting [14]) it was under 50%; in experiment [8] (in Solanum lycopersicum, Table 7, Test B, read-out: control value, Test B (gray mold on tomato)), over 50%. Moreover, the pest or weed control at 250 ppm in experiment [4] (setting [12]) and in experiment [6] was under 50% throughout.
For `CCn1c(-c2c(F)cc(F)cc2F)c(-n2cc(Cl)cn2)cc(OC)c1=O` [compound 225, 5-(4-chloro-1H-pyrazol-1-yl)-1-ethyl-3-methoxy-6-(2,4,6-trifluorophenyl)pyridin-2(1H)-one], the pest or weed control at 250 µg/mL in experiment [1] (setting [9]) was over 50%; in experiment [2] (setting [10]), under 50%; in experiment [3] (setting [11]) it was over 50%; in experiment [5] (setting [13]), over 50%; in experiment [7] (setting [14]), under 50%; in experiment [8] (setting [15]) it was under 50%. For the same compound, the pest or weed control at 250 ppm in experiment [4] (setting [12]) is over 50%; in experiment [6], under 50%.
Consider `CCn1c(-c2c(F)cc(O)cc2F)c(-n2cc(Cl)cn2)cc(Cl)c1=O` [compound 184, 3-chloro-5-(4-chloro-1H-pyrazol-1-yl)-6-(2,6-difluoro-4-hydroxyphenyl)-1-ethylpyridin-2(1H)-one], for which the pest or weed control at 250 µg/mL in experiment [1] (setting [9]) is over 50%; in experiment [2] (setting [10]) it was under 50%; in experiment [3] (setting [11]), over 50%; in experiment [5] (setting [13]), under 50%; in experiment [7] (setting [14]) it was under 50%; in experiment [8] (setting [15]), over 50%. Moreover, the pest or weed control at 250 ppm in experiment [4] (setting [12]) and in experiment [6] was over 50% throughout.
`C#Cc1cc(-n2cc(Cl)cn2)c(-c2c(F)cc(F)cc2F)n(CC)c1=O` [compound 223, 5-(4-chloro-1H-pyrazol-1-yl)-1-ethyl-3-ethynyl-6-(2,4,6-trifluorophenyl)pyridin-2(1H)-one]: the pest or weed control at 250 µg/mL in experiment [1] (setting [9]) is under 50%; in experiment [2] (setting [10]), under 50%; in experiment [3] (setting [11]), over 50%; in experiment [5] (setting [13]), under 50%; in experiment [7] (setting [14]), over 50%; in experiment [8] (setting [15]) it was under 50%. The pest or weed control at 250 ppm in experiment [4] (setting [12]) is over 50%; in experiment [6], under 50%.
In the case of `C#CCOc1cc(F)c(-c2c(-n3cc(Cl)cn3)cc(Cl)c(=O)n2CC)c(F)c1` [compound 201, 3-chloro-5-(4-chloro-1H-pyrazol-1-yl)-6-(2,6-difluoro-4-(propargyloxy)phenyl)-1-ethyl pyridin-2(1H)-one], the pest or weed control at 250 µg/mL was over 50% in experiment [1] (setting [9]); under 50% in experiment [2] (setting [10]); over 50% in experiment [3] (setting [11]); over 50% in experiment [5] (setting [13]); over 50% in experiment [7] (setting [14]); over 50% in experiment [8] (setting [15]). The pest or weed control at 250 ppm was under 50% in experiment [4] (setting [12]) and over 50% in experiment [6].
As to `CCn1c(-c2c(F)cc(F)cc2F)c(-n2cc(Cl)cn2)cc(C(F)F)c1=O` [compound 266, 5-(4-chloro-H-pyrazol-1-yl)-3-(difluoromethyl)-1-ethyl-6-(2,4,6-trifluorophenyl)pyridin-2(1H)-one], the pest or weed control at 250 µg/mL in experiment [1] (setting [9]) was over 50%; in experiment [2] (setting [10]), under 50%; in experiment [3] (setting [11]), over 50%; in experiment [5] (setting [13]), over 50%; in experiment [7] (setting [14]), over 50%; in experiment [8] (setting [15]), over 50%. Moreover, the pest or weed control at 250 ppm in experiment [4] (setting [12]) and in experiment [6] was over 50% throughout.
Regarding `CCn1c(-c2c(F)cc(OCCOC)cc2F)c(-n2cc(Cl)cn2)cc(Cl)c1=O` [compound 204, 3-chloro-5-(4-chloro-1H-pyrazol-1-yl)-6-(2,6-difluoro-4-(2-methoxyethoxy)phenyl)-1-ethylpyridin-2(1H)-one], the pest or weed control at 250 µg/mL in experiment [1] (setting [9]) is under 50%; in experiment [2] (setting [10]) it was under 50%; in experiment [3] (setting [11]) it was over 50%; in experiment [5] (setting [13]), under 50%; in experiment [7] (setting [14]) it was under 50%; in experiment [8] (setting [15]), over 50%. Also, the pest or weed control at 250 ppm in experiment [4] (setting [12]) was under 50%; in experiment [6], over 50%.
On to `CCn1c(-c2c(F)cc(F)cc2F)c(-n2cccn2)ccc1=O` [compound 26, 1-ethyl-5-(1H-pyrazol-1-yl)-6-(2,4,6-trifluorophenyl)pyridin-2(1H)-one], for which the pest or weed control at 250 µg/mL is over 50% in experiment [1] (setting [16]); under 50% in experiment [2] (read-out: Test F control value); over 50% in experiment [3] (setting [17]); over 50% in experiment [5] (setting [19]); over 50% in experiment [7] (read-out: Test A control value); over 50% in experiment [8] (setting [20]). For the same compound, the pest or weed control at 250 ppm in experiment [4] (setting [18]) is under 50%.
Turning to `CCn1c(-c2c(F)cc(F)cc2F)c(-n2cc(Cl)cn2)cc(I)c1=O` [compound 140, 5-(4-chloro-1H-pyrazol-1-yl)-1-ethyl-3-iodo-6-(2,4,6-trifluoro-phenyl)pyridin-2(1H)-one], the pest or weed control at 250 µg/mL is over 50% in experiment [1] (setting [16]); under 50% in experiment [2] (read-out: Test F control value); over 50% in experiment [3] (setting [17]); over 50% in experiment [5] (setting [19]); under 50% in experiment [7] (read-out: Test A control value); over 50% in experiment [8] (setting [20]). Besides, the pest or weed control at 250 ppm in experiment [4] (setting [18]) was under 50%.
Take `CCn1c(-c2c(F)cccc2F)c(-c2ccc(Cl)s2)ccc1=O` [compound 6, 5-(5-chlorothiophen-2-yl)-6-(2,6-difluorophenyl)-1-ethylpyridin-2(1H)-one]: the pest or weed control at 250 µg/mL is over 50% in experiment [1] (setting [16]); under 50% in experiment [2] (read-out: Test F control value); over 50% in experiment [3] (setting [17]); under 50% in experiment [5] (setting [19]); over 50% in experiment [7] (read-out: Test A control value); over 50% in experiment [8] (setting [20]). Further, the pest or weed control at 250 ppm in experiment [4] (setting [18]) was under 50%.
For the compound `CCn1c(-c2c(F)cc(OC)cc2F)c(-n2cc(Cl)cn2)cc(Cl)c1=O` [compound 41, 3-chloro-5-(4-chloro-1H-pyrazol-1-yl)-6-(2,6-difluoro-4-methoxyphenyl)-1-ethylpyridin-2(1H)-one], the pest or weed control at 250 µg/mL in experiment [1] (setting [16]) was over 50%; in experiment [2] (read-out: Test F control value) it was under 50%; in experiment [3] (setting [17]) it was over 50%; in experiment [5] (setting [19]), over 50%; in experiment [7] (read-out: Test A control value), over 50%; in experiment [8] (setting [20]), over 50%. Moreover, in experiment [4] (setting [18]), the pest or weed control at 250 ppm is under 50%.
